Measurements published in patent publication US10829520B2, “Beta-hairpin peptidomimetics” (POLYPHOR AG, priority 2015, dated 2020).
Where a SMILES comes first, the peptide text is derived from it. Bridges are numbered along the chain shown (N, C = ends). [ ]: non-standard residue; d: D form. Tle = CC(C)(C)[C@H](N)C(=O)O; Nle = CCCC[C@H](N)C(=O)O; Dab = NCC[C@H](N)C(=O)O; Dap = NC[C@H](N)C(=O)O; Aib = CC(C)(N)C(=O)O

Key:
Format in all cases: cell-based
[1] = test system: human red blood cells (hRBC); assay: Hemolysis of human red blood cells; conditions: red cells of human, 1 h, 100 μg/mL
Summary of the method: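 Peptides at 100 μg/mL were incubated with PBS-washed fresh human erythrocytes (20% v/v, ~0.9×10^9 cells/mL final) for 1 h at 37° C. with shaking. Supernatant OD540 was read after 8-fold dilution; percent hemolysis was expressed relative to the 2.5% Triton X-100 full-lysis control, with PBS/0.001% acetic acid as 0%.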

[2] = test system: Pseudomonas aeruginosa ATCC 27853; conditions: ATCC 27853
Summary of the method: (§1)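 Broth microdilution per CLSI, cation-adjusted MH-II medium, 0.002% (v/v) polysorbate 80 final. Approx. 10^6 CFU/mL inoculum, incubated 35° C for 18-20 h; MIC read as absence of visible growth.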

[3] = test system: Escherichia coli ATCC 25922; conditions: ATCC 25922
Summary of the method: as §1

[4] = test system: Klebsiella pneumoniae 968733; conditions: 968733
[5] = test system: Acinetobacter baumannii 872842; conditions: 872842
[6] = test system: Klebsiella pneumoniae SSI #3010; conditions: SSI #3010
Summary of the method: as §1

[7] = test system: Acinetobacter baumannii DSM 30008; conditions: DSM 30008
Summary of the method: as §1

[8] = test system: Escherichia coli 926415; conditions: 926415

Row | SMILES | Hemolysis at 100 μg/mL [1] [%] | Pseudomonas aeruginosa ATCC 27853 MIC [2] [µg/mL] | Escherichia coli ATCC 25922 MIC [3] [µg/mL] | Klebsiella pneumoniae 968733 MIC [4] [µg/mL] | Acinetobacter baumannii 872842 MIC [5] [µg/mL] | Klebsiella pneumoniae SSI #3010 MIC [6] [µg/mL] | Acinetobacter baumannii DSM 30008 MIC [7] [µg/mL] | Escherichia coli 926415 MIC [8] [µg/mL]
1 | CCCC[C@@H]1NC(=O)[C@@H]2CCCN2C(=O)[C@H]2CCCN2C(=O)[C@H](CO)NC(=O)[C@H](C)NC(=O)[C@H](C(C)(C)C)NC(=O)[C@@H](NC(=O)[C@H](Cc2c[nH]c3ccccc23)NC(C)=O)CSSC[C@@H](C(=O)N[C@@H](CCN)C(=O)NCC(=O)N[C@@H](CCN)C(=O)N[C@H]2CCNC(=O)[C@H]([C@@H](C)O)NC(=O)[C@H](CCN)NC(=O)[C@H](CCN)NC(=O)[C@H](CC(C)C)NC(=O)[C@@H](Cc3ccccc3)NC(=O)[C@H](CCN)NC2=O)NC(=O)[C@H](Cc2ccc(O)cc2)NC(=O)[C@H](CO)NC1=O [Ex. 22] (Ac-WC[Tle]AS[dP]P[Nle]SYC[Dab]G[Dab][Dab][Dab][dF]L[Dab][Dab]T; disulfide 2-11; lactam 15-C) | <1 | 0.25 | 0.125 | 1 | 0.125 | 0.25 | 0.5 | 0.5
2 | CCCC[C@@H]1NC(=O)[C@@H]2CCCN2C(=O)[C@H]2CCCN2C(=O)[C@H](CO)NC(=O)[C@H](C)NC(=O)[C@H](C(C)(C)C)NC(=O)[C@@H](NC(=O)[C@H](Cc2c[nH]c3ccccc23)NC(C)=O)CSSC[C@@H](C(=O)N[C@@H](CCN)C(=O)NC(C)(C)C(=O)N[C@@H](CCN)C(=O)N[C@H]2CCNC(=O)[C@H]([C@@H](C)O)NC(=O)[C@H](CCN)NC(=O)[C@H](CCN)NC(=O)[C@H](CC(C)C)NC(=O)[C@@H](Cc3ccccc3)NC(=O)[C@H](CCN)NC2=O)NC(=O)[C@H](Cc2ccc(O)cc2)NC(=O)[C@H](CO)NC1=O [Ex. 23] (Ac-WC[Tle]AS[dP]P[Nle]SYC[Dab][Aib][Dab][Dab][Dab][dF]L[Dab][Dab]T; disulfide 2-11; lactam 15-C) | 1 | 0.5 | 0.25 | 2 | 0.5 | 0.25 | 0.5 | 0.5
3 | CCCC[C@@H]1NC(=O)[C@@H]2CCCN2C(=O)[C@H]2CCCN2C(=O)[C@H](CO)NC(=O)[C@H](C)NC(=O)[C@H](C(C)(C)C)NC(=O)[C@@H](NC(=O)[C@H](Cc2c[nH]c3ccccc23)NC(C)=O)CSSC[C@@H](C(=O)N[C@@H](CCN)C(=O)N[C@H](C(=O)N[C@@H](CCN)C(=O)N[C@H]2CCNC(=O)[C@H]([C@@H](C)O)NC(=O)[C@H](CNC(=O)[C@@H](N)CCC(=O)O)NC(=O)[C@H](CCN)NC(=O)[C@H](CC(C)C)NC(=O)[C@@H](Cc3ccccc3)NC(=O)[C@H](CCN)NC2=O)[C@@H](C)O)NC(=O)[C@H](Cc2ccc(O)cc2)NC(=O)[C@H](CO)NC1=O [Ex. 25] (Ac-WC[Tle]AS[dP]P[Nle]SYC[Dab]T[Dab][Dab][Dab][dF]L[Dab][Dap](Glu)T; disulfide 2-11; lactam 15-C) | 3 | 4 | 2 | 8 | 1 | 4 | 1 | 3
4 | CCCC[C@@H]1NC(=O)[C@@H]2CCCN2C(=O)[C@H]2CCCN2C(=O)[C@H](CO)NC(=O)[C@H](C)NC(=O)[C@H](C(C)(C)C)NC(=O)[C@@H](NC(=O)[C@H](Cc2c[nH]c3ccccc23)NC(C)=O)CSSC[C@@H](C(=O)NCC(=O)N[C@@H](CCN)C(=O)N[C@H](C(=O)N[C@@H](CCN)C(=O)N[C@H]2CCNC(=O)[C@H]([C@@H](C)O)NC(=O)[C@H](CCN)NC(=O)[C@H](CCN)NC(=O)[C@H](CC(C)C)NC(=O)[C@@H](Cc3ccccc3)NC(=O)[C@H](CCN)NC2=O)[C@@H](C)O)NC(=O)[C@H](Cc2ccc(O)cc2)NC(=O)[C@H](CO)NC1=O [Ex. 26] (Ac-WC[Tle]AS[dP]P[Nle]SYCG[Dab]T[Dab][Dab][Dab][dF]L[Dab][Dab]T; disulfide 2-11; lactam 16-C) | <1 | 0.25 | 0.0625 | 0.5 | 0.125 | 0.25 | 0.5 | 0.25
5 | CCCC[C@@H]1NC(=O)[C@@H]2CCCN2C(=O)[C@H]2CCCN2C(=O)[C@H](CO)NC(=O)[C@H](C)NC(=O)[C@H](C(C)(C)C)NC(=O)[C@@H](NC(=O)[C@H](Cc2c[nH]c3ccccc23)NC(C)=O)CSSC[C@@H](C(=O)N[C@@H](CCN)C(=O)N[C@@H](CCN)C(=O)N[C@H](C(=O)N[C@@H](CCN)C(=O)N[C@H]2CCNC(=O)[C@H]([C@@H](C)O)NC(=O)[C@H](CCN)NC(=O)[C@H](CCN)NC(=O)[C@H](CC(C)C)NC(=O)[C@@H](Cc3ccccc3)NC(=O)[C@H](CCN)NC2=O)[C@@H](C)O)NC(=O)[C@H](Cc2ccc(O)cc2)NC(=O)[C@H](CO)NC1=O [Ex. 27] (Ac-WC[Tle]AS[dP]P[Nle]SYC[Dab][Dab]T[Dab][Dab][Dab][dF]L[Dab][Dab]T; disulfide 2-11; lactam 16-C) | <1 | 0.25 | 0.0625 | 0.5 | 0.125 | 0.125 | 0.125 | 0.5
6 | CCCC[C@@H]1NC(=O)[C@@H]2CCCN2C(=O)[C@H]2CCCN2C(=O)[C@H](CO)NC(=O)[C@H](C)NC(=O)[C@H](C(C)(C)C)NC(=O)[C@@H](NC(=O)[C@H](Cc2c[nH]c3ccccc23)NC(C)=O)CSSC[C@@H](C(=O)N[C@@H](C)C(=O)N[C@@H](CCN)C(=O)N[C@H](C(=O)N[C@@H](CCN)C(=O)N[C@H]2CCNC(=O)[C@H]([C@@H](C)O)NC(=O)[C@H](CCN)NC(=O)[C@H](CCN)NC(=O)[C@H](CC(C)C)NC(=O)[C@@H](Cc3ccccc3)NC(=O)[C@H](CCN)NC2=O)[C@@H](C)O)NC(=O)[C@H](Cc2ccc(O)cc2)NC(=O)[C@H](CO)NC1=O [Ex. 28] (Ac-WC[Tle]AS[dP]P[Nle]SYCA[Dab]T[Dab][Dab][Dab][dF]L[Dab][Dab]T; disulfide 2-11; lactam 16-C) | 1 | 0.5 | 0.25 | 0.375 | 1 | 0.25 | 0.5 | 1.5
7 | CCCC[C@@H]1NC(=O)[C@@H]2CCCN2C(=O)[C@H]2CCCN2C(=O)[C@H](CO)NC(=O)[C@H](C)NC(=O)[C@H](C(C)(C)C)NC(=O)[C@@H](NC(=O)[C@H](Cc2c[nH]c3ccccc23)NC(C)=O)CSSC[C@@H](C(=O)N[C@H](C)C(=O)N[C@@H](CCN)C(=O)N[C@H](C(=O)N[C@@H](CCN)C(=O)N[C@H]2CCNC(=O)[C@H]([C@@H](C)O)NC(=O)[C@H](CCN)NC(=O)[C@H](CCN)NC(=O)[C@H](CC(C)C)NC(=O)[C@@H](Cc3ccccc3)NC(=O)[C@H](CCN)NC2=O)[C@@H](C)O)NC(=O)[C@H](Cc2ccc(O)cc2)NC(=O)[C@H](CO)NC1=O [Ex. 29] (Ac-WC[Tle]AS[dP]P[Nle]SYC[dA][Dab]T[Dab][Dab][Dab][dF]L[Dab][Dab]T; disulfide 2-11; lactam 16-C) | <1 | 0.5 | 0.125 | 1 | 0.25 | 0.25 | 0.25 | 1
